Reference: patent publication US12324858B2, “Pharmaceutical formulation and system and method for delivery” (Rilento Pharma, LLC, priority 2018, dated 2025)
Entries after “also recorded” stand apart in the source; their conditions may differ. Counter-ions that a name gives are not always drawn.

Experiments:
[1] = Background UV spectra of individual ingredients in pH-2 water; format: physicochemical
Excerpt: Using the same instrument parameters and cuvettes, spectra were also acquired for each individual ingredient in the mixtures for the purpose of determining background contributions to the overall absorbance spectra that were obtained for the fully formulated mixtures. […] In this way, the background experiments were representative of the highest degree of spectral background contribution that might be potentially observed for the fully formulated devices if the devices were to completely disintegrate and dissolve during the water-soak experiment.
BUP-HCl is known to be a strong chromophore with a documented UV absorption maximum at 262 nm (Corciova, A., Eur. Chem. Bull., 2012, 2(8), 554-557).

[2] = Suspension test of candidate liquids with GLBG (gelation); format: physicochemical; conditions: for Gelation of GLBG suspended in the liquid: 2/1 w/w liquid to GLBG, monitoring window 0-24 and 0-48 hours; for Suitable for use in a hydrophilic device / Suitable for use in a hydrophobic device: suspension test with GLBG
Protocol: The suspensions are then qualitatively monitored as a function of time for physical changes, such as the onset of gelation, by using any one of a variety of possible qualitative or quantitative techniques. Note that other liquid to gelatin ratios can also be employed, including ratios that are intended for use in various end-applications. […] Monitoring times of suspensions can include various time points after the suspensions are mixed, including for example, 5 minutes after mixing, 0.5 hours after mixing, 1 hour after mixing, 5 hours after mixing, 24 hours after mixing, 48 hours after mixing, 1 week after mixing, 1 month after mixing, 6 months after mixing, 1 year after mixing, and even 2 to 5 years after mixing. […] Of course, quantitative measurements can also be employed if so desired (e.g., Brookfield viscosity, parallel plate dynamic mechanical techniques, etc.). […] Conversely, if there are signs of gelation, including for example, any one or more of the following responses before the end of the monitoring time window: 1) development of elastic recovery; 2) visualization of permanent coalescence of gelatin particulates; or 3) solid network formation with loss of pourability, then these liquids are by definition excluded as candidates for use in more hydrophobic formulations, and are instead considered as candidate liquids for use in preparing more hydrophilic formulations. […] A spatula was used to stir the ingredients to create a suspension. The suspensions were then allowed to set under static conditions and were qualitatively monitored as a function of time. Results at t=5 minutes after mixing, t=0.5 hours after mixing, t=5 hours after mixing, t=24 hours after mixing, and at t=48 hours after mixing were reported. The tests were conducted at 20 degrees C. with one exception, one of the tests was conducted at 27 degrees C. to ensure that the carrier was above its melt point and in its liquid state.

[3] = mineral oil estimated, cited from earlier work; for HANtotal: Hansen Solubility Parameter, total; for HAN δDispersion / HAN δH-bonding / HAN δPolar: Hansen

Row | Compound | Gelation of GLBG suspended in the liquid [2] | Suitable for use in a hydrophilic device [2] | Suitable for use in a hydrophobic device [2] | HAN δDispersion [3] | HAN δH-bonding [3] | HAN δPolar [3] | also measured
1 | CCCCN1CCCCC1C(=O)Nc1c(C)cccc1C (stereo not shown) [BUP free base, bupivacaine] | – | – | – | – | – | – | Relative Absorbance at 270 nm at t = 24 hrs. ([1]; individual ingredient in pH-2 water, background UV spectrum): > or = 4 (i.e.,; Solubility in water ([1]; water): low solubility in water
2 | CCCCN1CCCCC1C(=O)Nc1c(C)cccc1C (stereo not shown) [BUP-HCl, bupivacaine] | – | – | – | – | – | – | Solubility in pH-2 water ([1]; mildly acidic conditions, pH-2 water (dilute HCl)): completely soluble under these conditions
3 | OCC(O)CO [Glycerin] | lead to gelation of gelatin | Yes | No | – | – | – | Gelation of GLBG suspended in the liquid ([2]; listed as glycerin): work time window prior to the onset of gelation was observed to be significantly longer
4 | OCC(O)CO [Glycerol] | – | – | – | 17.4 MPa^1/2 | 29.3 MPa^1/2 | 12.1 MPa^1/2 | HANtotal [3]: 36.2 MPa^1/2; HSP ([3]; Hildebrand Solubility Parameter): 33.8 MPa^1/2
5 | CCCCCCCC(=O)OCC(COC(=O)CCCCCCC)OC(=O)CCCCCCC [caprylic triglyceride] | no signs of gelation | No | Yes | 16.2 MPa^1/2 | 4 MPa^1/2 | 3.4 MPa^1/2 | HANtotal [3]: 17.0 MPa^1/2
6 | CCCCCCCCCCCCCCCC(=O)OC(C)C [isopropyl palmitate] | no signs of gelation | No | Yes | – | – | – | –
7 | water | lead to gelation of gelatin; also recorded: gelation and elastic network formation was observed to begin almost immediately | Yes | No | 15.5 MPa^1/2 | 42.4 MPa^1/2 | 16.0 MPa^1/2 | –
